Test results published in PubChem BioAssay (NCI).
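96-well plates; 48 h exposure; 5 concentrations. Endpoints by linear interpolation between flanking doses. Not reached: highest tested concentration assigned. TGI: total growth inhibition.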

Tests used:
Experiment in all cases: growth of human tumour cells (NCI), 48 h
[1] = system: EKVX NSCLC
[2] = system: HT29 colon
[3] = system: IGROV1 ovarian
[4] = system: MDA-MB-231 breast
[5] = system: SF-268 CNS
[6] = system: HCT-116 colon
[7] = system: 786-0 renal
[8] = system: U251 CNS
[9] = system: RXF 393 renal
[10] = system: TK-10 renal
[11] = system: CAKI-1 renal
[12] = system: SK-MEL-5 melanoma
[13] = system: ACHN renal
[14] = system: NCI/ADR-RES ovarian
[15] = system: KM12 colon
[16] = system: T-47D breast
[17] = system: SNB-19 CNS
[18] = system: HOP-92 NSCLC
[19] = system: CCRF-CEM leukemia
[20] = system: NCI-H226 lung
[21] = system: LOX IMVI melanoma
[22] = system: NCI-H23 lung
[23] = system: OVCAR-8 ovarian
[24] = system: K-562 leukemia
[25] = system: HS 578T breast
[26] = system: COLO 205 colon
[27] = system: SNB-75 CNS
[28] = system: SK-MEL-2 melanoma
[29] = system: MDA-N
[30] = system: NCI-H522 lung
[31] = system: MCF7 breast
[32] = system: PC-3 prostate
[33] = system: M14 melanoma
[34] = system: OVCAR-3 ovarian
[35] = system: A549 NSCLC
[36] = system: SK-OV-3 ovarian
[37] = system: HL-60(TB) leukemia
[38] = system: UACC-257 melanoma
[39] = system: SF-295 CNS
[40] = system: MDA-MB-435
[41] = system: MOLT-4 leukemia
[42] = system: BT-549 breast
[43] = system: OVCAR-5 ovarian
[44] = system: UO-31 renal
[45] = system: SW-620 colon
[46] = system: DU-145 prostate
[47] = system: SF-539 CNS
[48] = system: SN12C renal
[49] = system: RPMI-8226 leukemia
[50] = system: OVCAR-4 ovarian
[51] = system: A498 renal
[52] = system: SR leukemia
[53] = system: NCI-H460 lung
[54] = system: UACC-62 melanoma
[55] = system: HCT-15 colon

Measured: TGI

COc1ccc(NC=O)c(C(=O)CCNC(C)=O)c1
> 100 µM: all assays above
